Some test systems named below: U-251; SN12C; KM12; NCI-H226; OVCAR-4; A498; COLO 205; SNB-19; SF-268; CAKI-1; UO-31; OVCAR-8; SK-MEL-28; EKVX; HCT-15; TK-10; SK-MEL-5; HOP-92.
Holding throughout (test): NCI tumour cell line growth inhibition, 48 h

Molecules are shown by their SMILES.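 Five concentrations, 48 hours, 96-well plates. GI50 = concentration required for 50% inhibition of growth.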 Calls of active or inactive are those of the source. No stated cut-off is given here; in the data, active = GI50 up to about 1.1 µM and inactive = higher.

`COC(=O)C(Cc1nc2ccccc2nc1O)C(=O)C(=O)Nc1ccc([N+](=O)[O-])cc1[N+](=O)[O-]` (centres undefined): the GI50 with U-251 was 17.1 µM (inactive); in the experiment on SN12C it was 19.8 µM (inactive); in the experiment with KM12 it was 16 µM (inactive); in the experiment with NCI-H226, 14.5 µM (inactive); with OVCAR-4 it was 20.1 µM (inactive); with A498, 23 µM (inactive). Further, the GI50 was 16.4 µM (inactive) in the experiment on COLO 205; 29.7 µM (inactive) with SNB-19; 21.5 µM (inactive) in the experiment with SF-268; 32.4 µM (inactive) in the experiment on CAKI-1; 20.6 µM (inactive) in the experiment with UO-31; 22.3 µM (inactive) in the experiment on OVCAR-8. For the same molecule, the GI50 in the experiment with SK-MEL-28 is 22.6 µM (inactive); in the experiment on EKVX it was 20 µM (inactive); in the experiment on HCT-15, 17.3 µM; in the experiment with TK-10, 26.4 µM (inactive); in the experiment on SK-MEL-5, 18.3 µM (inactive).

For `CC1(C)CC(C)(C)CC(O)(C2(O)CC(C)(C)CC(C)(C)C2)C1`, the GI50 with U-251, with SN12C, in the experiment with KM12, in the experiment on NCI-H226, with COLO 205 and with SNB-19 was > 100 µM (inactive) in each case. Also, the GI50 is > 100 µM (inactive) in the experiment on SF-268; > 100 µM (inactive) in the experiment with UO-31; > 100 µM (inactive) with OVCAR-8; > 100 µM (inactive) in the experiment with SK-MEL-28; > 100 µM (inactive) in the experiment on EKVX; over 100 µM in the experiment with HCT-15. For the same molecule, the GI50 in the experiment on TK-10 and with SK-MEL-5 was > 100 µM (inactive) in each case.

Take `c1ccc(CN(Cc2ccccn2)Cn2cccn2)nc1`: the GI50 in the experiment on U-251 was 39.2 µM (inactive); in the experiment on SN12C it was 47.9 µM (inactive); in the experiment on KM12 it was 63.8 µM (inactive); with OVCAR-4, > 100 µM (inactive); in the experiment with A498 it was 38.2 µM (inactive); in the experiment on COLO 205, 57.1 µM (inactive). Further, the GI50 in the experiment on SNB-19 was > 100 µM (inactive); in the experiment on SF-268 it was 76.6 µM (inactive); in the experiment on CAKI-1 it was > 100 µM (inactive); in the experiment on UO-31, 79.6 µM (inactive); in the experiment on OVCAR-8, 32.8 µM (inactive); in the experiment on SK-MEL-28, 15.7 µM (inactive). The GI50 was 52.6 µM (inactive) with HOP-92; 34.9 µM (inactive) in the experiment with EKVX; 28.7 µM in the experiment on HCT-15; > 100 µM (inactive) in the experiment on TK-10; 43.9 µM (inactive) in the experiment with SK-MEL-5.

Turning to `CCOC(=O)C(C)(C)Oc1ccc2c(=O)cc(-c3ccc(Cl)cc3)oc2c1`, the GI50 in the experiment on U-251, in the experiment with SN12C, in the experiment on NCI-H226, in the experiment with OVCAR-4, with A498 and in the experiment with COLO 205 was > 100 µM (inactive) in each case. The GI50 with SNB-19, in the experiment with SF-268, with UO-31, with OVCAR-8, in the experiment with SK-MEL-28 and in the experiment with EKVX was > 100 µM (inactive) throughout. In addition, the GI50 was over 100 µM in the experiment with HCT-15, > 100 µM (inactive) with TK-10 and > 100 µM (inactive) in the experiment on SK-MEL-5.

As for `CN(C)c1ccc(/C=C(\NC(=O)c2ccccc2)c2nc3ccc4c(c3[nH]2)C(=O)c2ccccc2C4=O)cc1`, the GI50 was 31.5 µM (inactive) with U-251; 34 µM (inactive) in the experiment on SN12C; 5.19 µM (inactive) with KM12; 47.2 µM (inactive) with OVCAR-4; 6.61 µM (inactive) with A498; > 100 µM (inactive) with COLO 205. In addition, the GI50 in the experiment with SNB-19 is > 100 µM (inactive); in the experiment on SF-268, 7.14 µM (inactive); with CAKI-1 it was 9.1 µM (inactive); with UO-31, 1.33 µM (inactive); with OVCAR-8, 37.4 µM (inactive); with SK-MEL-28, 27.5 µM (inactive). The GI50 in the experiment on HOP-92 was 12.8 µM (inactive); in the experiment on EKVX, 48.1 µM (inactive); with HCT-15, 34.1 µM; in the experiment with TK-10 it was 17.1 µM (inactive); in the experiment on SK-MEL-5 it was 34.3 µM (inactive).

As for `c1ccc(C2=NOC3COc4ccccc4OCC23)cc1` (centres undefined), the GI50 with U-251 is > 100 µM (inactive); in the experiment on SN12C, > 100 µM (inactive); in the experiment on KM12, 8.17 µM (inactive); with OVCAR-4 it was > 100 µM (inactive); in the experiment with A498 it was > 100 µM (inactive); with COLO 205 it was > 100 µM (inactive). Also, the GI50 in the experiment on SNB-19 was > 100 µM (inactive); with SF-268, > 100 µM (inactive); with CAKI-1, 97.5 µM (inactive); with UO-31 it was 77.1 µM (inactive); in the experiment on OVCAR-8 it was > 100 µM (inactive); with SK-MEL-28 it was > 100 µM (inactive). For the same molecule, the GI50 in the experiment with EKVX is > 100 µM (inactive); in the experiment on HCT-15 it was over 100 µM; in the experiment on TK-10, > 100 µM (inactive); with SK-MEL-5, 61.5 µM (inactive).

`CC(=O)[O-].Cc1ncc(CO)c(/C=N/NC(N)=S)c1[O-].[Zn+2]`: the GI50 in the experiment on U-251, in the experiment on SN12C, with NCI-H226, in the experiment on OVCAR-4, in the experiment on A498 and in the experiment on COLO 205 was > 100 µM (inactive) each time. Besides, the GI50 in the experiment with SNB-19, in the experiment on SF-268, with UO-31, in the experiment on OVCAR-8, in the experiment with SK-MEL-28 and with EKVX was > 100 µM (inactive) each time. Further, the GI50 was over 100 µM in the experiment on HCT-15, > 100 µM (inactive) in the experiment on TK-10 and > 100 µM (inactive) with SK-MEL-5.

For `O=S(=O)(c1ccccc1)C(CN1CCCCC1)S(=O)(=O)c1ccccc1`, the GI50 in the experiment with U-251, in the experiment with SN12C, in the experiment on KM12, in the experiment with NCI-H226, in the experiment on OVCAR-4 and in the experiment with COLO 205 was > 100 µM (inactive) each time. The GI50 in the experiment on SNB-19, in the experiment on SF-268, in the experiment on CAKI-1, in the experiment with UO-31, with OVCAR-8 and with SK-MEL-28 was > 100 µM (inactive) throughout. Also, the figures for the GI50 in the experiment on HOP-92, with HCT-15 and in the experiment with TK-10 were > 100 µM (inactive), over 100 µM and > 100 µM (inactive), respectively.

Consider `Cc1nc2c(n1Cc1ccc(F)cc1)C(=O)c1ccccc1C2=O`, for which the GI50 in the experiment with U-251 was 6.56 µM (inactive); in the experiment with SN12C, 54 µM (inactive); with KM12, 42.2 µM (inactive); in the experiment with NCI-H226, 32.5 µM (inactive); in the experiment with OVCAR-4, 31.1 µM (inactive); with COLO 205, 18.9 µM (inactive). In addition, the GI50 in the experiment with SNB-19 is > 100 µM (inactive); in the experiment on SF-268, 4.6 µM (inactive); with UO-31, > 100 µM (inactive); in the experiment with OVCAR-8, 35.4 µM (inactive); in the experiment with SK-MEL-28, > 100 µM (inactive); with EKVX, 71 µM (inactive). Also, the GI50 with HCT-15 was 4.29 µM; in the experiment with TK-10 it was > 100 µM (inactive); with SK-MEL-5, 10.3 µM (inactive).

In the case of `COc1ccc(NC(=O)C(C)Oc2ccc(OCC3CCCCC3)cc2)cc1` (centres undefined), the GI50 is > 100 µM (inactive) in the experiment with U-251; > 100 µM (inactive) with SN12C; > 100 µM (inactive) with KM12; > 100 µM (inactive) in the experiment on NCI-H226; 94 µM (inactive) in the experiment with OVCAR-4; > 100 µM (inactive) in the experiment with A498. Also, the GI50 in the experiment on SNB-19 was > 100 µM (inactive); in the experiment on SF-268 it was > 100 µM (inactive); with UO-31, 51.4 µM (inactive); in the experiment with OVCAR-8, > 100 µM (inactive); with SK-MEL-28 it was > 100 µM (inactive); in the experiment with HCT-15, 63 µM. Besides, the GI50 is > 100 µM (inactive) in the experiment with TK-10 and 34.1 µM (inactive) in the experiment on SK-MEL-5.

On to `Cc1cccc2c1C/C(=C1\CCc3c(C)cccc31)C2=O`, for which the GI50 in the experiment on U-251 is > 100 µM (inactive); in the experiment with SN12C, > 100 µM (inactive); in the experiment with KM12, > 100 µM (inactive); with NCI-H226, > 100 µM (inactive); with OVCAR-4, 52.6 µM (inactive); in the experiment with A498 it was > 100 µM (inactive). Moreover, the GI50 with COLO 205, in the experiment with SNB-19, with SF-268, in the experiment with CAKI-1, with UO-31 and in the experiment with OVCAR-8 was > 100 µM (inactive) throughout. The GI50 with SK-MEL-28 is > 100 µM (inactive); with EKVX it was > 100 µM (inactive); in the experiment on HCT-15, over 100 µM; in the experiment with TK-10, > 100 µM (inactive); with SK-MEL-5, > 100 µM (inactive).

For `CCc1oc2ccc(OC)c3c2c1C=CC=C3`, the GI50 in the experiment with U-251, in the experiment with SN12C, in the experiment on KM12, with NCI-H226, in the experiment on OVCAR-4 and in the experiment on A498 was > 100 µM (inactive) each time. Moreover, the GI50 in the experiment on COLO 205 is > 100 µM (inactive); with SNB-19 it was > 100 µM (inactive); with SF-268, > 100 µM (inactive); in the experiment with UO-31, 21.9 µM (inactive); in the experiment with OVCAR-8, > 100 µM (inactive); in the experiment with SK-MEL-28, > 100 µM (inactive). Moreover, the GI50 in the experiment on EKVX is > 100 µM (inactive); in the experiment on HCT-15, over 100 µM; with TK-10, > 100 µM (inactive); with SK-MEL-5, > 100 µM (inactive).

For the molecule `CC(=O)N(O)Cc1ccccc1`, the GI50 in the experiment with U-251, in the experiment with SN12C, with KM12, with NCI-H226, with OVCAR-4 and in the experiment with COLO 205 was > 100 µM (inactive) in each case. Besides, the GI50 with SNB-19, in the experiment on SF-268, with CAKI-1, in the experiment with UO-31, in the experiment with OVCAR-8 and in the experiment with SK-MEL-28 was > 100 µM (inactive) throughout. The GI50 is > 100 µM (inactive) with HOP-92, over 100 µM in the experiment on HCT-15, > 100 µM (inactive) in the experiment on TK-10 and > 100 µM (inactive) in the experiment with SK-MEL-5.
